Assay results from patent publication US20230061319A1, “METHODS OF TREATING TUMORS” (CoImmune, Inc., priority 2020, published 2023).

How the values were obtained:
Assay type in all cases: cell-based, human
[1] = system: CMV pp65 specific CTLs; experiment: CMV pp65 specific recall CTL effector function (IFN-γ, TNF-α, IL-2 secretion, CD107a expression)
Procedure: (§1) PME-CD40L DCs derived from HLA-A2-positive donors and transfected with antigen-encoding mRNAs were co-cultured with purified CD8^+ T cells. All co-cultures were performed in R-10 media. CD8^+ T cells were purified using the CD8+ T Cell Negative Selection Kit II (Miltenyi Biotec) from non-adherent cells harvested from the monocyte adherence step. The CD8^+ cells were mixed with DCs at a 10:1 ratio and incubated in the presence of 0.2 µg/mL IL-2 and 10 ng/mL IL-7 (R&D Systems). DC/T cell co-cultures were re-stimulated on day 7 and supplemented with 20 units/mL IL-2 plus 10 ng/mL IL-7. Induction of primary immune responses to MART-1 and memory/recall responses to CMV pp65 were measured on day 10.
(§2) To identify antigen-specific T cell responses and the phenotype of the antigen specific cells, T cells were harvested on day 10 post-stimulation and incubated with peptide-pulsed T2 target cells at a ratio of 10:1 for 4 hour with Brefeldin A, Monensin (BD Biosciences) and CD107a PE-Cy5. […] After 4 hours of co-culture, responder T cells were stained for 10 minutes with the requisite peptide/pentamer reagent, then washed once and re-stained with CD8-Eflour605, CD45RA-FITC, and CD28-APC. Cells were then washed in PBS and stained with Aquadye (BD Biosciences) for analysis of viability. Labeled cells were then fixed and permeabilized in Fixation/Permeabilization solution (eBiosciences). Cells where then stained with IFN-γ-PECy7, TNFa-AF700 and IL-2-PerCPcy5.5 in permeabilization buffer and resuspended in FACs buffer prior to acquisition.
To assess the impact mTOR inhibition would have on CTL effector function in vitro, CMV pp65 specific CTLs were assayed for the ability to secret the cytokines IFN-y, TNF-α and IL-2, and express the degranulation marker CD107a, which serves as a surrogate marker to measure lytic activity. Data presented in FIG. 2A and FIG. 2B measures the absolute numbers of CMV […] specific CTLs that secrete IFN-y, TNF-α or IL-2, or express CD107a in response to CMV pp65 peptide pulsed target cells. The absolute numbers of CMV^+ CTLs shown have been corrected for background non-specific responses to display only the antigen specific response for each parameter.

[2] = system: MART-1 specific CTLs; experiment: Priming of MART-1 specific CTLs by PME-CD40L DCs in the presence of mTOR inhibitors; conditions: in the presence of the mTOR inhibitor, 10 ng/ml to 1 ug/ml
Procedure: 300 x 10^6 peripheral blood mononuclear cells (PBMCs) were cultured in 30 mL AIM-V media (Thermo Fisher Scientific) in T150 flasks (Corning) for 2 hours to provide for the adherence of monocytes. Non-adherent cells were removed by washing the monolayers twice with cold phosphate buffered saline (PBS) (Cambrex), and the remaining monocytes were cultured in X-VIVO 15 medium (Cambrex) for 5 days, supplemented with 1000 U/mL each of granulocyte macrophage-colony stimulating factor (GM-CSF) (Bayer AG, Leukine® liquid) and IL-4 (R&D Systems). To achieve DC maturation, immature DCs were first cultured on day 5 with 10 ng/mL tumor necrosis factor alpha (TNF-α) (R&D Systems), 1000 µ/mL interferon gamma (IFN-y) (Actimmune), and 1 µg/mL prostaglandin E2 (PGE2) (Sigma). On day 6, phenotypically mature DCs were co-electroporated with RNA encoding CD40L (Argos Lot No. 101606 JSC) at a concentration of 3 ug per million DCs plus either human cytomegalovirus (CMV) pp65 or MART-1 encoding RNAs at 2 µg per million DCs (CMVpp65 RNA-Argos Lot No 071107XF, MART-1-APL RNA-Argos Lot No. 011909HC). […]
PME-CD40L DCs derived from HLA-A2-positive donors and transfected with antigen-encoding mRNAs were co-cultured with purified CD8^+ T cells. […] Induction of primary immune responses to MART-1 and memory/recall responses to CMV pp65 were measured on day 10. […]

[3] = system: CMV pp65 specific CTLs; experiment: Induction of CMV pp65 specific recall CTLs by PME-CD40L DCs in the presence of mTOR inhibitors
Procedure: 300 x 10^6 peripheral blood mononuclear cells (PBMCs) were cultured in 30 mL AIM-V media (Thermo Fisher Scientific) in T150 flasks (Corning) for 2 hours to provide for the adherence of monocytes. Non-adherent cells were removed by washing the monolayers twice with cold phosphate buffered saline (PBS) (Cambrex), and the remaining monocytes were cultured in X-VIVO 15 medium (Cambrex) for 5 days, supplemented with 1000 U/mL each of granulocyte macrophage-colony stimulating factor (GM-CSF) (Bayer AG, Leukine® liquid) and IL-4 (R&D Systems). To achieve DC maturation, immature DCs were first cultured on day 5 with 10 ng/mL tumor necrosis factor alpha (TNF-α) (R&D Systems), 1000 µ/mL interferon gamma (IFN-y) (Actimmune), and 1 µg/mL prostaglandin E2 (PGE2) (Sigma). On day 6, phenotypically mature DCs were co-electroporated with RNA encoding CD40L (Argos Lot No. 101606 JSC) at a concentration of 3 ug per million DCs plus either human cytomegalovirus (CMV) pp65 or MART-1 encoding RNAs at 2 µg per million DCs (CMVpp65 RNA-Argos Lot No 071107XF, MART-1-APL RNA-Argos Lot No. 011909HC). Generation of MART-1 RNA and CD40L RNA is described in e.g., DeBenedette et al., J. Immunol. 181(8):5296-5305 (2008).
Electroporated DCs were cultured for an additional 4 hours in X-VIVO 15 media supplemented with 800 µ/mL GM-CSF and 500 µ/mL IL-4 at 1 x 10^6 DCs/mL in low adherence 6-well plates (Costar). After 4 hr, the DCs were harvested by washing with cold PBS and prepared as a frozen formulation at 10 x 10^6 DCs/mL in 20% DMSO and 80% FBS, representing antigen electroporated Post Maturation Electroporated (PME)-CD40L DC preparations.
as §1, §2
CD8^+ cytotoxic T lymphocyte (CTL) responses were used to measure the pp65 CMV recall response induced by PME-CD40L DCs in the presence of mTOR inhibitors everolimus and temsirolimus. PME-CD40L DCs encoding CMV pp65 were used to stimulate recall CTL responses in the presence of the mTOR inhibitors under evaluation for compatibility with the CMN-001 product. The expansion of recall CTLs specific for CMV pp65 was determined on day 3 after a second weekly stimulation with PME-CD40L DCs.

[4] = system: MART-1 specific CTLs; experiment: MART-1 specific CTL effector function (IFN-γ, TNF-α, IL-2 secretion, CD107a expression); conditions: at the higher concentrations tested; compared to untreated CTLs
Procedure: as §1
as §2, with “Cells where then stained with IFN-γ-PECy7, TNFa-AF700 and IL-2-PerCPcy5.5 in permeabilization buffer and resuspended in FACs buffer prior to acquisition.” left out

[5] = 10 ng/ml, compared to DC/CTL co-cultures without mTOR inhibitor, day 3 after second weekly stimulation

## CO[C@H]1C[C@@H]2CC[C@@H](C)[C@@](O)(O2)C(=O)C(=O)N2CCCC[C@H]2C(=O)O[C@H]([C@H](C)C[C@@H]2CC[C@@H](OCCO)[C@H](OC)C2)CC(=O)[C@H](C)/C=C(\C)[C@@H](O)[C@@H](OC)C(=O)[C@H](C)C[C@H](C)/C=C/C=C/C=C/1C [everolimus]
[1]; 10 ng/ml, compared to untreated CTLs
  numbers of CMV+ CTL secreting a cytokine or expressing CD107a: increased
[1]; 1 µg/ml
  increase in effector function of CMV+ CTL: maintained
[2]
  priming of MART-1 specific CTLs by PME-CD40L DC: able to prime
[3]; [5]
  numbers of CMV pp65 specific CTLs: increase
  percentage of CMV pp65 specific CTLs: increase
[3]; 1 µg/ml
  increase in absolute numbers of CMV+ CTL: evident
  increase in percentage of CMV+ CTL: evident
[4]
  numbers of MART-1+ CTL secreting a cytokine or expressing CD107a: increased
